Earlier results on ten compounds are cited in US20240342237A1, “COMPOSITION AND METHODS OF TREATMENT USING TRANSDERMAL SUPPLEMENTATION” (Xygenyx Inc., priority 2023, published 2024).

Square brackets hold non-standard residues; d marks the D form. Peptide text beside a SMILES is read from it. Cit = NC(=O)NCCC[C@H](N)C(=O)O

The test system of data set [1] is skin. As to conditions: as penetration enhancer.
Data set [2] concerns wide dynamic range neurons in the ventroposterolateral nucleus of the thalamus. As to conditions: in vivo.
Data set [3] relates to skin. As to conditions: topical application, concentrations 0.5-5%.
For data set [4], the system named is skin. Conditions: topical formulations, within four weeks of treatment.
The conditions of data set [5]: compared to α-tocopherol = 1.0.
The conditions of data set [6]: dietary intake in equal portions.
For data set [7] the following is noted: in vivo.

For the compound `CC(C)[C@@H]1CC[C@@H](C)C[C@H]1O` [Menthol], in the data set on skin [1], the “factor of increase of transdermal drug uptake” value is at least 10. Take `CCCCCc1cc(O)c2c(c1)OC(C)(C)C1CCC(C)=CC21` (stereo not shown) [THC, Δ-9-tetrahydrocannabinol]: the “power in mediating pain relative to morphine” value in data set [2] was “ten times more powerful than morphine”.

Consider `C=CCCCCCCCCC(=O)N[C@@H](Cc1ccccc1)C(=O)O` [UP, Undecylenoyl phenylalanine], for which the “time to skin lightening effects” value with skin [3] is at least 7 days. As to `CC12CCC(CC1)C(C)(C)O2` [eucalyptol, 1,8-epoxy-p-menthane], the “factor of increase of transdermal drug uptake” value in the data set with skin [1] is reported as “more than 10”.

Consider `CC[C@H](C)[C@H](NC(=O)[C@H](CC(=O)O)NC(=O)[C@@H](N)CCCCN)C(=O)N[C@@H](CCCNC(N)=O)C(N)=O` [tripeptide-10 citrulline, Tripeptide-10 citrulline] (H-KDI[Cit]-NH2), for which the improvement of suppleness with skin [4] is at most 54%. As to `Cc1c(C)c2c(c(C)c1O)CC[C@@](C)(CCC[C@H](C)CCC[C@H](C)CCCC(C)C)O2` [α-tocopherol], the “reduction of risk of coronary disease” value (dietary supplementation, doses up to 400 IU/day) is recorded as “up to 34%”. Besides, the “reduction of risk of developing neurodegenerative diseases such as Alzheimer's Syndrome or dementia” value (dietary supplementation, doses up to 400 IU/day, controlled trials) is listed as at most 24%. Also, under “in combination with 10-20 mg β-carotene and 400-500 mg vitamin C, doses around 400-500 IU”, the “reduction in the development of age-related cataracts” value was 23%.

As for `Cc1cc(O)c(C)c2c1O[C@](C)(CCC[C@H](C)CCC[C@H](C)CCCC(C)C)CC2` [β-tocopherol], the relative biological activity in data set [5] is 0.5. Turning to `Cc1c(O)cc2c(c1C)O[C@](C)(CCC[C@H](C)CCC[C@H](C)CCCC(C)C)CC2` [γ-tocopherol], the relative biological activity in data set [5] was 0.1. Besides, the “concentration in vivo relative to α-tocopherol” value in data set [6] is given as “roughly 10%”. As to `Cc1cc(O)cc2c1O[C@](C)(CCC[C@H](C)CCC[C@H](C)CCCC(C)C)CC2` [δ-tocopherol], the relative biological activity in data set [5] was 0.03. For the compound “HGH: hormone comprising a peptide chain that is synthesized in the pituitary gland”, the biological half-life in data set [7] was 10-20 minutes.
